Reference: ChEMBL document CHEMBL1201862, “PubChem BioAssay data set” (2004)
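Briefly, cells in 96-well plates were exposed to five compound concentrations for 48 h, and endpoints were estimated by linear interpolation. GI50 marks 50% less growth.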 Activity calls are given as the source filed them. No stated cut-off is given here; in the data, active = GI50 up to about 1.1 µM and inactive = higher.

Assays:
Experiment in all cases: NCI-60 cell line screen, 48 h
K562 = test system: K562
HL-60 = test system: HL-60
RXF 393 = test system: RXF 393
CAKI-1 = test system: CAKI-1
UO-31 = test system: UO-31
HOP-18 = test system: HOP-18
LOX IMVI = test system: LOX IMVI
HCT-15 = test system: HCT-15
MOLT-4 = test system: MOLT-4
OVCAR-8 = test system: OVCAR-8
NCI-H226 = test system: NCI-H226
DMS-273 = test system: DMS-273
KM-20L2 = test system: KM-20L2
SF-295 = test system: SF-295
UACC-62 = test system: UACC-62
EKVX = test system: EKVX
HCC 2998 = test system: HCC 2998
TK-10 = test system: TK-10
KM12 = test system: KM12
SN12C = test system: SN12C
M14 = test system: M14
NCI-H23 = test system: NCI-H23
ACHN = test system: ACHN
NCI-H522 = test system: NCI-H522
SNB-78 = test system: SNB-78
SW-620 = test system: SW-620
Malme-3M = test system: Malme-3M
HT-29 = test system: HT-29
OVCAR-5 = test system: OVCAR-5
XF498 = test system: XF498
OVCAR-3 = test system: OVCAR-3
RXF 631 = test system: RXF 631
786-0 = test system: 786-0
RPMI-8226 = test system: RPMI-8226
IGROV-1 = test system: IGROV-1
HOP-62 = test system: HOP-62
LXFL 529 = test system: LXFL 529
SK-MEL-28 = test system: SK-MEL-28
DLD-1 = test system: DLD-1
U-251 = test system: U-251
CCRF-CEM = test system: CCRF-CEM
SNB-19 = test system: SNB-19
NCI-H460 = test system: NCI-H460
HCT-116 = test system: HCT-116
SF-539 = test system: SF-539
A498 = test system: A498
A549 = test system: A549
SK-MEL-5 = test system: SK-MEL-5
DMS-114 = test system: DMS-114
OVCAR-4 = test system: OVCAR-4
SK-MEL-2 = test system: SK-MEL-2
M19-MEL = test system: M19-MEL
SNB-75 = test system: SNB-75
UACC-257 = test system: UACC-257
SF-268 = test system: SF-268
HOP-92 = test system: HOP-92
COLO 205 = test system: COLO 205
SK-OV-3 = test system: SK-OV-3

Structure (SMILES): O=C(CC(=O)c1cccc([N+](=O)[O-])c1)C(=O)Nc1ccccc1
- GI50 (K562): > 100 µM (inactive)
- GI50 (HL-60): > 100 µM (inactive)
- GI50 (RXF 393): > 100 µM (inactive)
- GI50 (CAKI-1): > 100 µM (inactive)
- GI50 (UO-31): > 100 µM (inactive)
- GI50 (HOP-18): > 100 µM (inactive)
- GI50 (LOX IMVI): > 100 µM (inactive)
- GI50 (HCT-15): > 100 µM
- GI50 (MOLT-4): > 100 µM (inactive)
- GI50 (OVCAR-8): > 100 µM (inactive)
- GI50 (NCI-H226): > 100 µM (inactive)
- GI50 (DMS-273): > 100 µM (inactive)
- GI50 (KM-20L2): > 100 µM (inactive)
- GI50 (SF-295): > 100 µM (inactive)
- GI50 (UACC-62): > 100 µM (inactive)
- GI50 (EKVX): > 100 µM (inactive)
- GI50 (HCC 2998): > 100 µM (inactive)
- GI50 (TK-10): > 100 µM (inactive)
- GI50 (KM12): > 100 µM (inactive)
- GI50 (SN12C): > 100 µM (inactive)
- GI50 (M14): > 100 µM (inactive)
- GI50 (NCI-H23): > 100 µM (inactive)
- GI50 (ACHN): > 100 µM (inactive)
- GI50 (NCI-H522): > 100 µM (inactive)
- GI50 (SNB-78): > 100 µM (inactive)
- GI50 (SW-620): > 100 µM (inactive)
- GI50 (Malme-3M): > 100 µM (inactive)
- GI50 (HT-29): > 100 µM (inactive)
- GI50 (OVCAR-5): > 100 µM (inactive)
- GI50 (XF498): > 100 µM (inactive)
- GI50 (OVCAR-3): > 100 µM (inactive)
- GI50 (RXF 631): > 100 µM (inactive)
- GI50 (786-0): > 100 µM (inactive)
- GI50 (RPMI-8226): > 100 µM (inactive)
- GI50 (IGROV-1): > 100 µM (inactive)
- GI50 (HOP-62): > 100 µM (inactive)
- GI50 (LXFL 529): > 100 µM (inactive)
- GI50 (SK-MEL-28): > 100 µM (inactive)
- GI50 (DLD-1): > 100 µM (inactive)
- GI50 (U-251): > 100 µM (inactive)
- GI50 (CCRF-CEM): > 100 µM (inactive)
- GI50 (SNB-19): > 100 µM (inactive)
- GI50 (NCI-H460): > 100 µM (inactive)
- GI50 (HCT-116): > 100 µM (inactive)
- GI50 (SF-539): > 100 µM (inactive)
- GI50 (A498): > 100 µM (inactive)
- GI50 (A549): > 100 µM (inactive)
- GI50 (SK-MEL-5): > 100 µM (inactive)
- GI50 (DMS-114): > 100 µM (inactive)
- GI50 (OVCAR-4): > 100 µM (inactive)
- GI50 (SK-MEL-2): > 100 µM (inactive)
- GI50 (M19-MEL): > 100 µM (inactive)
- GI50 (SNB-75): > 100 µM (inactive)
- GI50 (UACC-257): > 100 µM (inactive)
- GI50 (SF-268): > 100 µM (inactive)
- GI50 (HOP-92): > 100 µM (inactive)

Structure (SMILES): COc1ccc2cc3n(c2c1)CCc1cc(OC)c(OC)cc1-3
- GI50 (K562): > 100 µM (inactive)
- GI50 (HL-60): > 100 µM (inactive)
- GI50 (RXF 393): > 100 µM (inactive)
- GI50 (CAKI-1): > 100 µM (inactive)
- GI50 (UO-31): > 100 µM (inactive)
- GI50 (HOP-18): > 100 µM (inactive)
- GI50 (LOX IMVI): > 100 µM (inactive)
- GI50 (MOLT-4): > 100 µM (inactive)
- GI50 (OVCAR-8): > 100 µM (inactive)
- GI50 (NCI-H226): > 100 µM (inactive)
- GI50 (DMS-273): > 100 µM (inactive)
- GI50 (KM-20L2): > 100 µM (inactive)
- GI50 (SF-295): 51.2 µM (inactive)
- GI50 (UACC-62): 71.8 µM (inactive)
- GI50 (EKVX): > 100 µM (inactive)
- GI50 (HCC 2998): > 100 µM (inactive)
- GI50 (TK-10): > 100 µM (inactive)
- GI50 (KM12): > 100 µM (inactive)
- GI50 (SN12C): > 100 µM (inactive)
- GI50 (NCI-H23): > 100 µM (inactive)
- GI50 (ACHN): > 100 µM (inactive)
- GI50 (COLO 205): > 100 µM (inactive)
- GI50 (NCI-H522): > 100 µM (inactive)
- GI50 (SNB-78): > 100 µM (inactive)
- GI50 (SW-620): > 100 µM (inactive)
- GI50 (HT-29): > 100 µM (inactive)
- GI50 (XF498): > 100 µM (inactive)
- GI50 (RXF 631): > 100 µM (inactive)
- GI50 (786-0): > 100 µM (inactive)
- GI50 (SK-OV-3): > 100 µM (inactive)
- GI50 (IGROV-1): > 100 µM (inactive)
- GI50 (HOP-62): > 100 µM (inactive)
- GI50 (LXFL 529): > 100 µM (inactive)
- GI50 (SK-MEL-28): > 100 µM (inactive)
- GI50 (DLD-1): > 100 µM (inactive)
- GI50 (U-251): 77.1 µM (inactive)
- GI50 (CCRF-CEM): > 100 µM (inactive)
- GI50 (SNB-19): > 100 µM (inactive)
- GI50 (NCI-H460): > 100 µM (inactive)
- GI50 (SF-539): > 100 µM (inactive)
- GI50 (A498): 28.4 µM (inactive)
- GI50 (A549): > 100 µM (inactive)
- GI50 (DMS-114): > 100 µM (inactive)
- GI50 (OVCAR-4): 45.9 µM (inactive)
- GI50 (SK-MEL-2): > 100 µM (inactive)
- GI50 (M19-MEL): > 100 µM (inactive)
- GI50 (UACC-257): 92.3 µM (inactive)
- GI50 (SF-268): > 100 µM (inactive)
- GI50 (HOP-92): > 100 µM (inactive)
